Results on five molecules are retold here after patent US12486273B2 (Hoffmann-La Roche Inc., priority 2019, dated 2025).

SMILES strings stand for the structures.

One data set has as its target human TLR7 (Homo sapiens (Human), UniProt Q9NYK1). The data set can be described thus: HEK293-Blue-hTLR-7 cells assay. Format: cell-based. The conditions noted are these: HEK293-Blue-hTLR7 cells, R848 stimulation, 20 hrs, SEAP reporter; read-out: HEK/hTLR7 IC50. In a few lines: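 HEK293-Blue cells stably expressing hTLR7 with NF-κB/AP-1-driven SEAP reporter, incubated 20 h at 37 °C with serially diluted compound (1% DMSO) plus R848 agonist (10 μL of 20 μM stock). Supernatant SEAP measured with QUANTI-Blue after 2 h at 37 °C, absorbance 620-655 nm; antagonism as reduced reporter.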

The nature of data set [1]: Human microsomal stability assay. The format is in vitro ADME. The settings on record: human liver microsomes, 1 μM test compound, 37° C., pH 7.4. Here is the method:
Human Microsomal Stability Assay
Human liver microsomes (Cat. NO.: 452117, Corning, USA) were preincubated with test compound for 10 minutes at 37° C. in 100 mM potassium phosphate buffer, pH 7.4. The reactions were initiated by adding NADPH regenerating system. The final incubation mixtures contained 1 μM test compound, 0.5 mg/mL liver microsomal protein, 1 mM MgCl2, 1 mM NADP, 1 unit/mL isocitric dehydrogenase and 6 mM isocitric acid in 100 mM potassium phosphate buffer, pH 7.4. After incubation times of 0, 3, 6, 9, 15 and 30 minutes at 37° C., 300 μL of cold ACN (including internal standard) was added to 100 μL incubation mixture to terminate the reaction. Following precipitation and centrifugation, 100 μL supernatant will be taken out and added 300 μL water. The amount of compound remaining in the samples was determined by LC-MS/MS. Controls of no NADPH regenerating system at zero and 30 minutes were also prepared and analyzed. The results were categorized as: low (<7.0 mL/min/kg), medium (7.0-16.2 mL/min/kg) and high (16.2-23.2 mL/min/kg).
A general note: Liver microsomes are a subcellular fraction often used to study metabolism.

human TLR7, sequence (Q9NYK1 27-1049): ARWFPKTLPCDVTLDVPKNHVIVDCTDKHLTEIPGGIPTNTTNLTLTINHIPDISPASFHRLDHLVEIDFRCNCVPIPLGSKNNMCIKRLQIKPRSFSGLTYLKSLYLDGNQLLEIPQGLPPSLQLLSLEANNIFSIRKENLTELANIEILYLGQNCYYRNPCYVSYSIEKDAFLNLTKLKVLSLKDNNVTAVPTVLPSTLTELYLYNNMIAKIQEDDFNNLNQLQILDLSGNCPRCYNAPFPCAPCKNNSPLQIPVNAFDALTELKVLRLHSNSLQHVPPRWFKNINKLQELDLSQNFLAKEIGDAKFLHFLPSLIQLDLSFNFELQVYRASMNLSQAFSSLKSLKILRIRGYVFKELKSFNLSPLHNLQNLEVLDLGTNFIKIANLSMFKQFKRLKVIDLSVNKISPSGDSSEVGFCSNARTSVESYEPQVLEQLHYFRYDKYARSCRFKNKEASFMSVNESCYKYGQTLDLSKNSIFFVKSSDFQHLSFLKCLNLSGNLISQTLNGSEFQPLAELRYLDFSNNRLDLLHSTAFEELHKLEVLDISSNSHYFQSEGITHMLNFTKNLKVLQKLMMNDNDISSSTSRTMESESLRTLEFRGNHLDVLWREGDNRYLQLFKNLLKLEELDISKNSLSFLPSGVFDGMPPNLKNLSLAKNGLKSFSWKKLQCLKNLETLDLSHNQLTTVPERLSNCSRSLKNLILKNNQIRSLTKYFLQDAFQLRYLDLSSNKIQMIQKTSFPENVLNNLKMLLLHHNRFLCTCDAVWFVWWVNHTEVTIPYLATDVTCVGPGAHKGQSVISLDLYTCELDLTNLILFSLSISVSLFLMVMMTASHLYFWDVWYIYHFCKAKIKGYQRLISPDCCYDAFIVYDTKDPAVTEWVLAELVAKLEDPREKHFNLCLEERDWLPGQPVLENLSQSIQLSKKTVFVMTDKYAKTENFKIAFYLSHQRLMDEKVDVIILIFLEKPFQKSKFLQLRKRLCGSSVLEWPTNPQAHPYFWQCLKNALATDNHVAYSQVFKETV

Take `C[C@@H]1CN(c2ccc(C#N)c3ncccc23)C[C@@H]2C[C@@H](Nc3ccc4c(n3)CCNC4)CN21` [Example 1, 5-[(4R,7R,8aS)-4-methyl-7-(5,6,7,8-tetrahydro-1,6-naphthyridin-2-ylamino)-3,4,6,7,8,8a-hexahydro-1H-pyrrolo[1,2-a]pyrazin-2-yl]quinoline-8-carbonitrile]: the IC50 on human TLR7 was 16.1 nM. In addition, the “CL (h)” value in data set [1] was 9.1 mL/min/kg.

For `C[C@@H]1CN(c2ccc(C#N)c3ncccc23)C[C@@H]2C[C@@H](Nc3cc4c(cn3)CCNC4)CN21` [Example 2, 5-[(4R,7R,8aS)-4-methyl-7-(5,6,7,8-tetrahydro-2,6-naphthyridin-3-ylamino)-3,4,6,7,8,8a-hexahydro-1H-pyrrolo[1,2-a]pyrazin-2-yl]quinoline-8-carbonitrile], the IC50 on human TLR7 worked out at 40.5 nM. In data set [1], the “CL (h)” value is 7.3 mL/min/kg.

With `C[C@@H]1CN(c2ccc(C#N)c3ncccc23)C[C@@H]2C[C@@H](Nc3ccc4c(n3)CNCC4)CN21` [Example 3, 5-[(4R,7R,8aS)-4-methyl-7-(5,6,7,8-tetrahydro-1,7-naphthyridin-2-ylamino)-3,4,6,7,8,8a-hexahydro-1H-pyrrolo[1,2-a]pyrazin-2-yl]quinoline-8-carbonitrile], the IC50 at human TLR7 came out at 38.7 nM. Further, in data set [1], the “CL (h)” value is 6.7 mL/min/kg.

As to `[2H]c1ccc2c(N3C[C@@H]4C[C@H](N5CCNCC5)CN4[C@H](C)C3)ccc(C#N)c2n1` [Example 15, 5-[(4R,7S,8aS)-4-methyl-7-piperazin-1-yl-3,4,6,7,8,8a-hexahydro-1H-pyrrolo[1,2-a]pyrazin-2-yl]-2-deuterio-quinoline-8-carbonitrile], the IC50 at human TLR7 turned out to be 12.9 nM. Moreover, the “CL (h)” value in data set [1] was 8.0 mL/min/kg.

With `[2H]c1ccc2c(N3C[C@@H]4C[C@H](N5CCC(N(C)C)CC5)CN4[C@H](C)C3)ccc(C#N)c2n1` [Example 20, 5-[(4R,7S,8aS)-7-[4-(dimethylamino)-1-piperidyl]-4-methyl-3,4,6,7,8,8a-hexahydro-1H-pyrrolo[1,2-a]pyrazin-2-yl]-2-deuterio-quinoline-8-carbonitrile], the IC50 at human TLR7 was found to be 18.9 nM. Also, in data set [1], the “CL (h)” value is on record as 6.2 mL/min/kg.
